According to publication PMC12270681 (The Journal of Biological Chemistry, 2025):
“And” between values parts separate entries of the source, which are not always exact repeats. Equal values may be shown once.

Tests used:
[1] = molecular target: T1, Cb-cParM (Clostridium botulinum, UniProt A0A9Y2YAC8); settings: polymerised with 3 mM ATP, 30 min; Mg2+; pH 7.5; 25 °C; nucleotide hydrolysed to ADP in the filament
T1 construct: gene EXN02_10840

[2] = molecular target: T2, Dh-cParM1 (Desulfitobacterium hafniense, UniProt Q24VP4); assay: cryo-EM structure of filament ([…] A); assay type: binding; set-up: gene DSY2109; synthetic gene, N- or C-side 8xHis tag with HRV 3C site, tag cut; E. coli BL21(DE3); polymerises into helical filaments; settings: polymerised with 5 mM ATP; 40 mM HEPES pH 7.5, 400 mM KCl, 1 mM MgCl2; nucleotide state not unambiguous, ADP fits better
T2 sequence (Q24VP4 1-369): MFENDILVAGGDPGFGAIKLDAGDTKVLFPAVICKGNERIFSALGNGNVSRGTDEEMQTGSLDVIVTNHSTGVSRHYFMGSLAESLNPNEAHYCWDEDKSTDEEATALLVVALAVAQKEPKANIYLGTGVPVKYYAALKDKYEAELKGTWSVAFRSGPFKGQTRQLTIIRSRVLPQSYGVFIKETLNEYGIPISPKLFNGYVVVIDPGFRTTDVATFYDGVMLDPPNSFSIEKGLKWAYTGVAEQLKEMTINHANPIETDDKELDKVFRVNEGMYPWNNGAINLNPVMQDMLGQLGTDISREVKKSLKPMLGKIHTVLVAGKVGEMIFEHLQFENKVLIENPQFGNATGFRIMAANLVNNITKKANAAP

[3] = molecular target: T2, Dh-cParM1; set-up: gene DSY2109; settings: 5 mM nucleotide (sedimentation); pH 7.5, Mg2+, 24 °C
[4] = molecular target: T1, Cb-cParM; settings: polymerised with 3 mM GTP, 30 min, class 1; Mg2+; pH 7.5; 25 °C; nucleotide hydrolysed to GDP in the filament
[5] = molecular target: T1, Cb-cParM; settings: class 2 (30 min) and 1 min with 3 mM GTP; Mg2+; pH 7.5; 25 °C; low resolution, nucleotide likely GTP or GDP-Pi
[6] = molecular target: T2, Dh-cParM1; assay: polymerisation by sedimentation, EM; assay type: binding; set-up: gene DSY2109; synthetic gene, N- or C-side 8xHis tag with HRV 3C site, tag cut; E. coli BL21(DE3); polymerises into helical filaments; settings: 5 mM nucleotide (sedimentation); pH 7.5, Mg2+, 24 °C
[7] = molecular target: Dh-cParM1, chromosome-encoded ParM of the Desulfitobacterium hafniense Y51 Dh-cParMR-1 cassette (Desulfitobacterium hafniense Y51); assay: co-sedimentation

T1 sequence (A0A9Y2YAC8 1-285): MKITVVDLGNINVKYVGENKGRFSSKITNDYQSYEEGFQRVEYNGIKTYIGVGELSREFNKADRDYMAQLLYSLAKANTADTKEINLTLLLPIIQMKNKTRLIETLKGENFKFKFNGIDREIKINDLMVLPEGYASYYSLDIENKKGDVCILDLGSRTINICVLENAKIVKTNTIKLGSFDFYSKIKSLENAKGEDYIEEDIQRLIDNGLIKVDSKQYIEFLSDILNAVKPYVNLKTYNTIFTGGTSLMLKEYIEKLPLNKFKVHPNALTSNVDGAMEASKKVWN

In the case of Nc1ncnc2c1ncn2[C@@H]1O[C@H](COP(=O)(O)OP(=O)(O)O)[C@@H](O)[C@H]1O [ADP], the “cryo-EM structure of filament (3.9 A)” value [1] is reported as “indicating that the bound nucleotides had been hydrolyzed to ADP and GDP, respectively” and the “cryo-EM structure of filament (4.0 A)” value [2] is reported as “ADP appears to fit better into the cryoEM density map than ATP”.

With Nc1ncnc2c1ncn2[C@@H]1O[C@H](COP(=O)(O)OP(=O)(O)OP(=O)(O)O)[C@@H](O)[C@H]1O [ATP] the “polymerisation by light scattering, sedimentation, EM” value [3] was “Dh-cParM1 polymerization induced by ATP was followed by light scattering”.

For Nc1nc2c(ncn2[C@@H]2O[C@H](COP(=O)(O)OP(=O)(O)O)[C@@H](O)[C@H]2O)c(=O)[nH]1 [GDP], the “cryo-EM structure of filament (3.5 A)” value [4] was “indicating that the bound nucleotides had been hydrolyzed to ADP and GDP, respectively”.

For Nc1nc2c(ncn2[C@@H]2O[C@H](COP(=O)(O)OP(=O)(O)OP(=O)(O)O)[C@@H](O)[C@H]2O)c(=O)[nH]1 [GTP], the “cryo-EM structure of filament (6.5 A and 8.6 A); Pi release also measured” value [5] was “suggesting that they were in the state before the phosphate release” and the “polymerisation by sedimentation, EM” value [6] was “Filaments were induced by the addition of ATP, GTP, and non-hydrolysable nucleotides”.

For “Dh-cParM1, chromosome-encoded ParM of the Desulfitobacterium hafniense Y51 Dh-cParMR-1 cassette (natural protein)”, the residual concentration in the supernatants (compared with a critical concentration) [7] was 4 µM and 5 µM.
